Conditions: Liquid, Hot wire method

COCCOC [1,2-dimethoxyethane]
Conditions	thermal conductivity [W/m/K]
245.46 K, 104.6 kPa	0.1648
245.69 K, 30045 kPa	0.1742
245.95 K, 9806.6 kPa	0.1669
245.96 K, 30103 kPa	0.1746
246.06 K, 5008.2 kPa	0.1665
246.06 K, 20070 kPa	0.1711
246.24 K, 20007 kPa	0.1706
246.49 K, 105.9 kPa	0.165
246.52 K, 5028.5 kPa	0.1666
246.69 K, 10018 kPa	0.1683
246.75 K, 10005 kPa	0.1682
246.79 K, 5010 kPa	0.1662
247.52 K, 103.3 kPa	0.1647
255.91 K, 20016 kPa	0.1675
256.02 K, 102.5 kPa	0.1606
256.02 K, 30007 kPa	0.1706
256.1 K, 10040 kPa	0.1643
256.21 K, 5070.2 kPa	0.1623
256.75 K, 30014 kPa	0.1707
256.81 K, 20002 kPa	0.1679
256.83 K, 10040 kPa	0.1642
256.9 K, 5065.5 kPa	0.1625
256.95 K, 102.5 kPa	0.161
257.48 K, 5064.5 kPa	0.1625
257.56 K, 20022 kPa	0.1674
257.58 K, 102.3 kPa	0.1607
257.62 K, 10048 kPa	0.1643
257.66 K, 30002 kPa	0.1708
266.15 K, 10003 kPa	0.1617
266.18 K, 5017.9 kPa	0.1601
266.19 K, 30009 kPa	0.1688
266.26 K, 101.3 kPa	0.158
266.26 K, 20003 kPa	0.1654
266.32 K, 10011 kPa	0.1618
266.41 K, 100.9 kPa	0.158
266.58 K, 5037.6 kPa	0.1598
266.87 K, 20013 kPa	0.165
266.95 K, 30000 kPa	0.1684
267.11 K, 30013 kPa	0.1683
267.35 K, 20003 kPa	0.1653
267.37 K, 10021 kPa	0.1617
267.5 K, 101.1 kPa	0.1578
267.84 K, 5027 kPa	0.1598
275.68 K, 10024 kPa	0.1585
275.72 K, 5003.3 kPa	0.1567
276.21 K, 20024 kPa	0.1624
276.34 K, 101.8 kPa	0.1547
276.45 K, 30012 kPa	0.1657
276.49 K, 100.9 kPa	0.1543
276.52 K, 20015 kPa	0.1623
276.94 K, 5006 kPa	0.1567
277.11 K, 30008 kPa	0.1654
277.29 K, 10005 kPa	0.1584
277.31 K, 30012 kPa	0.1653
277.53 K, 20015 kPa	0.1623
277.55 K, 5005.5 kPa	0.1565
277.95 K, 10000 kPa	0.1585
278.62 K, 101.1 kPa	0.1539
285.8 K, 10010 kPa	0.1551
286.18 K, 5012.4 kPa	0.1531
286.23 K, 101.5 kPa	0.1512
286.4 K, 30001 kPa	0.1626
286.51 K, 20013 kPa	0.159
286.67 K, 30009 kPa	0.1625
286.8 K, 20011 kPa	0.159
287.06 K, 101.3 kPa	0.1509
287.07 K, 30006 kPa	0.1621
287.28 K, 10001 kPa	0.1549
287.46 K, 5010.5 kPa	0.153
287.68 K, 20035 kPa	0.1586
288.14 K, 10002 kPa	0.1545
288.62 K, 100.9 kPa	0.1504
288.65 K, 5009.1 kPa	0.1525
294.52 K, 10026 kPa	0.1516
294.53 K, 20008 kPa	0.1566
294.55 K, 30012 kPa	0.1589
294.64 K, 10027 kPa	0.1527
294.68 K, 106.8 kPa	0.1466
294.68 K, 20036 kPa	0.1566
294.75 K, 104.2 kPa	0.1463
294.83 K, 5021.1 kPa	0.15
294.85 K, 10037 kPa	0.1514
294.89 K, 30004 kPa	0.1609
294.98 K, 5020.1 kPa	0.1495
295 K, 30018 kPa	0.1595
295.07 K, 5014 kPa	0.149
295.11 K, 20026 kPa	0.1557
295.24 K, 20010 kPa	0.1569
295.28 K, 30016 kPa	0.1598
295.32 K, 30006 kPa	0.16
295.36 K, 101.9 kPa	0.1467
295.36 K, 20006 kPa	0.1558
295.37 K, 10024 kPa	0.1515
295.38 K, 104.3 kPa	0.1474
295.83 K, 10044 kPa	0.1522
296 K, 5027.1 kPa	0.1498
314.6 K, 104.5 kPa	0.1394
314.65 K, 105.6 kPa	0.1386
314.79 K, 30008 kPa	0.1522
314.83 K, 20003 kPa	0.1491
314.84 K, 5010.3 kPa	0.1415
314.87 K, 10003 kPa	0.1443
314.9 K, 107.1 kPa	0.1402
314.95 K, 20016 kPa	0.1476
315.06 K, 10017 kPa	0.144
315.14 K, 30010 kPa	0.1529
315.17 K, 10013 kPa	0.1447
315.23 K, 5018.6 kPa	0.1424
315.26 K, 30008 kPa	0.1519
315.27 K, 105.4 kPa	0.1395
315.3 K, 20008 kPa	0.1484
315.31 K, 20001 kPa	0.1483
315.42 K, 10012 kPa	0.1445
315.46 K, 5010.3 kPa	0.1419
315.51 K, 100.6 kPa	0.1391
334.53 K, 10006 kPa	0.1361
334.58 K, 102.1 kPa	0.132
334.58 K, 5005.9 kPa	0.1342
334.65 K, 5011.8 kPa	0.1347
334.69 K, 90 kPa	0.132
334.76 K, 10004 kPa	0.1366
334.94 K, 10015 kPa	0.1373
334.98 K, 5008.9 kPa	0.1344
335.06 K, 101.6 kPa	0.1322
335.31 K, 10008 kPa	0.1374
335.39 K, 5011.5 kPa	0.1347
335.53 K, 105.6 kPa	0.1314
335.59 K, 10015 kPa	0.1366
335.96 K, 5018 kPa	0.1343
336.14 K, 105.6 kPa	0.1319

Cc1ccccc1 [toluene]
Conditions	thermal conductivity [W/m/K]
274.65 K	0.1387
275.4 K	0.1382
275.95 K	0.1384
276.31 K	0.138
287.33 K	0.1345
288.72 K	0.1336
289.65 K	0.1335
294.45 K	0.1318
294.69 K	0.1318
295.08 K	0.1321
295.47 K	0.1314
295.79 K	0.132
297.45 K	0.1318
298.6 K	0.1313
300.43 K	0.1303
307.66 K	0.1287
308.62 K	0.1283
310.22 K	0.1274
314.69 K	0.1261
314.74 K	0.1264
315.55 K	0.1253
315.85 K	0.1254
316.7 K	0.1251
317.94 K	0.1251
319.32 K	0.1245
319.96 K	0.1245
327.65 K	0.1225
329.5 K	0.1214
330.77 K	0.1209
338.39 K	0.1188
339.77 K	0.1181
340.62 K	0.1181
355.63 K	0.114
355.95 K	0.114
357.02 K	0.1137
375.26 K	0.1086
375.71 K	0.1087

Source: the NIST ThermoML archive (doi:10.1007/s10765-008-0549-z)
